Reference: ChEMBL document CHEMBL1152241, “Synthesis and recovery of high bioactive phenolics from table-olive brine process wastewater” (Bioorg Med Chem, 2008)
In brackets after ≈: the same amount, converted by molar mass. Activity calls are given as the source filed them. The calls are words filed in the database; no cut-off is given here.

Tests used:
[1] = Antioxidant activity assessed as trolox equivalent of ABTS radical scavenging activity; format: functional
[2] = system: Radical scavenging activity; test: Antioxidant activity assessed as DPPH radical scavenging activity after 30 mins; format: functional
Staphylococcus aureus = test: Antibacterial activity against Staphylococcus aureus ATCC 9144 after 24 to 72 hrs at 37 degC by broth dilution susceptibility test; format: functional
DG-75 [3] = test: Cytotoxicity against human DG75 cells after 48 hrs by MTT assay; format: functional, cell-based; settings: for IC50: DG-75, 48 h
Bacillus subtilis = test: Antibacterial activity against Bacillus subtilis ATCC 6633 after 24 to 72 hrs at 30 degC by broth dilution susceptibility test; format: functional
Candida albicans = test: Antifungal activity against Candida albicans ATCC 10231 after 24 to 72 hrs at 28 degC by broth dilution susceptibility test; format: functional
PBL = test: Cytotoxicity against human PBL after 48 hrs by MTT assay; format: cell-based
DG-75 [4] = test: Antioxidant activity against ferrous ion-induced oxidative stress in human DG75 cells assessed as decrease in malondialdehyde formation at 20 ug/mL pretreated for 4 hrs before Fe2+ challenge by TBARS assay; format: functional, cell-based
HeLa [5] = test: Antioxidant activity against ferrous ion-induced oxidative stress in human HeLa cells assessed as decrease in malondialdehyde formation at 20 ug/mL pretreated for 4 hrs before Fe2+ challenge by TBARS assay; format: functional, cell-based
[6] = Antioxidant activity assessed as ferric ion reducing activity by FRAP assay; format: functional
HeLa [7] = test: Cytotoxicity against human HeLa cells after 48 hrs by MTT assay; format: functional, cell-based
HeLa [8] = test: Antioxidant activity against ferrous ion-induced oxidative stress in human HeLa cells assessed as decrease in malondialdehyde formation at 10 ug/mL pretreated for 4 hrs before Fe2+ challenge by TBARS assay; format: functional, cell-based
Aspergillus niger = test: Antifungal activity against Aspergillus niger ATCC 16404 after 24 to 72 hrs at 28 degC by broth dilution susceptibility test; format: functional
Pseudomonas aeruginosa = test: Antibacterial activity against Pseudomonas aeruginosa ATCC 15442 after 24 to 72 hrs at 30 degC by broth dilution susceptibility test; format: functional
DG-75 [9] = test: Antioxidant activity against ferrous ion-induced oxidative stress in human DG75 cells assessed as decrease in malondialdehyde formation at 10 ug/mL pretreated for 4 hrs before Fe2+ challenge by TBARS assay; format: functional, cell-based
Escherichia coli = test: Antibacterial activity against Escherichia coli ATCC 10536 after 24 to 72 hrs at 37 degC by broth dilution susceptibility test; format: functional
Salmonella enterica = test: Antibacterial activity against Salmonella enterica CIP 80.39 after 24 to 72 hrs at 37 degC by broth dilution susceptibility test; format: functional

Compound | Activity [1] | IC50 [2] | MIC (Staphylococcus aureus) | Activity (DG-75 [3]) | IC50 (DG-75 [3]) | MIC (Bacillus subtilis) | MIC (Candida albicans) | Activity (PBL) | Activity (DG-75 [4]) | Activity (HeLa [5]) | Activity [6] | Activity (HeLa [7]) | IC50 (HeLa [7]) | Activity (HeLa [8]) | MIC (Aspergillus niger) | MIC (Pseudomonas aeruginosa) | Activity (DG-75 [9]) | MIC (Escherichia coli) | MIC (Salmonella enterica) | Activity [2]
Cc1cc(C(C)(C)C)c(O)c(C(C)(C)C)c1 [BUTYLATED HYDROXYTOLUENE] | 2.37 mmol | 7.94 µg/mL (≈ 36 µM) |  |  |  |  |  |  |  |  |  |  |  |  |  |  |  |  |  | 
OCCc1ccc(O)c(O)c1 [HYDROXYTYROSOL] | 3.4 mmol | 3.71 µg/mL (≈ 24.1 µM) | 62.5 µg/mL (≈ 405 µM) | Dose-dependent effect | 58 µg/mL (≈ 376 µM) | 62.5 µg/mL (≈ 405 µM) | 125 µg/mL (≈ 811 µM) | Not Active | Active | Active | Active | Dose-dependent effect | 70 µg/mL (≈ 454 µM) | Active | 250 µg/mL (≈ 1620 µM) | 125 µg/mL (≈ 811 µM) | Active | 125 µg/mL (≈ 811 µM) | 125 µg/mL (≈ 811 µM) | 
CC(=O)OCCc1ccc(OC(C)=O)c(OC(C)=O)c1 | inactive |  |  | Dose-dependent effect | 27 µg/mL (≈ 96.3 µM) | 125 µg/mL (≈ 446 µM) | 500 µg/mL (≈ 1780 µM) | Not Active |  |  | inactive | Dose-dependent effect | 92 µg/mL (≈ 328 µM) |  | 500 µg/mL (≈ 1780 µM) | 250 µg/mL (≈ 892 µM) |  | 250 µg/mL (≈ 892 µM) | 250 µg/mL (≈ 892 µM) | inactive
